Test results as given in PMC6277434, “Discovery of a potent HMG-CoA reductase degrader that eliminates statin-induced reductase accumulation and lowers cholesterol” (Nature Communications, 2018).

Assays:
K89R/K248R HMGCR [1] = biological target: T1, K89R/K248R HMGCR (Cricetulus griseus, UniProt P00347, K248R/K89R); assay: Degradation of transfected K89R/K248R HMGCR in CHO-7 cells; type: cell-based; set-up: expressed in transfected cells; host or cells: CHO-7 (A20); conditions: transfected CHO-7 cells, 5 h
T1 sequence (P00347 1-887 K89R/K248R): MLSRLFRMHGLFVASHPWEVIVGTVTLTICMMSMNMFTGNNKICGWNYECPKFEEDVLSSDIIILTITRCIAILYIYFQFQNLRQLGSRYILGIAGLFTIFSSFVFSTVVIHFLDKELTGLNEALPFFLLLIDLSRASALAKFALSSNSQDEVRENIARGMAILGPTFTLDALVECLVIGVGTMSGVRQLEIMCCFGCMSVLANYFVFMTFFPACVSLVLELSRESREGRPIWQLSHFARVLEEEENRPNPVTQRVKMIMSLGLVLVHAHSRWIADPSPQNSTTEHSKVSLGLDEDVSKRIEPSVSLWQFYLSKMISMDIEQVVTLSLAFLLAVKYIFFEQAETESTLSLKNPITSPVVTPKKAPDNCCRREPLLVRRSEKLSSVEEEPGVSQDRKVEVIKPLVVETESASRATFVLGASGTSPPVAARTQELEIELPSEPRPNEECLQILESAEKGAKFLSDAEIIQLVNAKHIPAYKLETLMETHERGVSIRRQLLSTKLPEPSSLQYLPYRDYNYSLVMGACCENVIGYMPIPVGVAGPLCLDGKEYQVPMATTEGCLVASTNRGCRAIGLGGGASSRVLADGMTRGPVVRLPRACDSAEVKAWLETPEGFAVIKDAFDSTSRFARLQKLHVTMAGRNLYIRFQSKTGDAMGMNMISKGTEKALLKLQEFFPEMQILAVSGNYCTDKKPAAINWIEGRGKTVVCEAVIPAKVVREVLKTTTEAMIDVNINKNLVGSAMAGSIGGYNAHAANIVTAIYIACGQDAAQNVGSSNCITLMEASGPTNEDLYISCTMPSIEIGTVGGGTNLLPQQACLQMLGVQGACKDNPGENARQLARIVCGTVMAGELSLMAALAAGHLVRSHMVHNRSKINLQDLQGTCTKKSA
Method: HMGCR protein of DMSO-treated cells was defined as 100. […] Lysates were immunoprecipitated and pellets were probed for anti-ubiquitin (P4D1) and anti-HMGCR (A9). e CHO-7 cells were transfected with indicated plasmids and treated as in d. Lysates were immunoprecipitated with anti-Flag M2 beads, and pellets were probed for anti-ubiquitin (HA) and anti-HMGCR (Flag). f CHO-7 cells were transfected with indicated plasmids, then treated with Cmpd 81 for 5 h. […] Data are from three independent experiments and presented as mean ± SD. Source data are provided as a Source Data File.
Cells were harvested and homogenized in the RIPA buffer (50 mM Tris-HCl, pH 8.0, 150 mM NaCl, 2 mM MgCl2, 1.5% NP-40, 0.1% SDS, and 0.5% sodium deoxycholate) supplemented with protease cocktail inhibitor, 10 μM MG-132, 10 μg ml^−1 leupeptin and 1 mM phenylmethylsulfonyl fluoride. The protein concentrations of lysates were determined using BCA method (Beyotime). […] Western blot images were captured by Amersham Imager 600 (GE Healthcare), and integrated optical intensities of each band were quantified by Image-Pro Plus 6 software (Media Cybernetics). […]

K89R/K248R HMGCR [2] = biological target: T1, K89R/K248R HMGCR; assay: Immunoblotting of overexpressed K89R/K248R HMGCR in Huh7 cells; type: cell-based; set-up: expressed in transfected cells; host or cells: Huh7 (A8); conditions: lovastatin
Method: Cells were harvested and homogenized in the RIPA buffer (50 mM Tris-HCl, pH 8.0, 150 mM NaCl, 2 mM MgCl2, 1.5% NP-40, 0.1% SDS, and 0.5% sodium deoxycholate) supplemented with protease cocktail inhibitor, 10 μM MG-132, 10 μg ml^−1 leupeptin and 1 mM phenylmethylsulfonyl fluoride. The protein concentrations of lysates were determined using BCA method (Beyotime). Samples were mixed with the membrane protein solubilization buffer (62.5 mM Tris-HCl, pH 6.8, 15% SDS, 8 M urea, 10% glycerol, and 100 mM DTT) plus the 4× loading buffer (150 mM Tris-HCl, pH 6.8, 12% SDS, 30% glycerol, 6% 2-mercaptoethanol, and 0.02% bromophenol blue) and incubated for 30 min at 37 °C. Proteins were resolved by SDS-PAGE and transferred to nitrocellulose membranes (GE Healthcare). Immnoblots were blocked with 5% non-fat milk in TBS containing 0.075% Tween-20 (TBST) and probed with indicated antibodies overnight at 4 °C. After washing in TBST for five times, blots were incubated with HRP-conjugated secondary antibodies for 2 h at room temperature. Immunoreactivity was developed with Clarity Western ECL chemiluminescent substrates (170–5061, Bio-Rad). Western blot images were captured by Amersham Imager 600 (GE Healthcare), and integrated optical intensities of each band were quantified by Image-Pro Plus 6 software (Media Cybernetics). […]
RT-qPCR. Quantifications of the relative mRNA levels of indicated SREBP target […]

Row | SMILES | degradation of K89R/K248R HMGCR (K89R/K248R HMGCR [1]) | effect on ubiquitination-resistant K89R/K248R HMGCR protein level (K89R/K248R HMGCR [2])
1 | C=CCC(O)(CC=C)CCCC(C)C1CCC2C3C(O)C=C4C(C)(C)C(O)CCC4(C)C3CCC12C (centres unmarked) [Cmpd 81] | blunted the effect | 
2 | CC[C@H](C)C(=O)O[C@H]1C[C@@H](C)C=C2C=C[C@H](C)[C@H](CC[C@@H]3C[C@@H](O)CC(=O)O3)[C@H]21 [Lovastatin, lovastatin] |  | did not induce the protein level further increase
